Measurements: patent publication US9512175B2, “Macrocyclic inhibitors of flaviviridae viruses” (Gilead Sciences, Inc., priority 2012, dated 2016)
pIC50: −log10 of the molar value. Like-named read-outs stand apart in the source and are kept apart here.

Key:
cyclophilin A = cyclophilin A (Homo sapiens, UniProt P62937); assay: Cyclophilin A TR-FRET competitive binding assay; settings: IC50 ranges; competition with CsA-Cy5 for His-tagged CypA, two-hour incubation; read-out: TR-FRET
Experimental: Cyclophilin A TR-FRET Competitive Binding Assay
Inhibitor potency was measured using a competitive binding assay with a time-resolved fluorescence resonance energy transfer (TR-FRET) readout. […] An IC50 value was calculated using a four-parameter logistic fit.

[1] = system: HCV replicon (Replicon 1a); assay: anti-HCV activity in Huh-7 cell line harboring a HCV replicon (Replicon 1a); type: cell-based; settings: for inhibition at 1 µM: Hepatitis C virus, Huh-7, 72 h
[2] = read-out: Replicon 1a % inhibition at 1 μM, 1 μM, human hepatoma Huh-7 HCV replicon cells, 3 days, luciferase readout
[3] = read-out: Replicon 1a % inhibition at 1 μM

Chain of cyclophilin A (P62937 whole entry, species assumed): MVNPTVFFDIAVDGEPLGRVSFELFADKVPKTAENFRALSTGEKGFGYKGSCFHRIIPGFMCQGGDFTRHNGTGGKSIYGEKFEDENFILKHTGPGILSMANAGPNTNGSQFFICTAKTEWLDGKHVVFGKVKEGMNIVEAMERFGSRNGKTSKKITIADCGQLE

Structure (SMILES) | pIC50 (cyclophilin A) | inhibition at 1 µM [1, 2] [%] | inhibition at 1 µM [1, 3] [%] | Replicon 1a % inhibition at 1 μM [1] [%]
CC(C)[C@@H]1NC(=O)C2(/C=C/c3ccc4ccc(nc4c3)[C@@H](C)OC(=O)[C@@H]3CCCN(N3)C(=O)[C@H](C)NC1=O)CCOC(C)(C)C2 (stereo partly drawn) [Compound 123] | > 7.00 | 100 |  | 
CC[C@H](C)[C@@H]1NC(=O)C(C)(C)/C=C/c2ccc3ccc(nc3c2)[C@@H](C)OC(=O)[C@@H]2CCCN(N2)C(=O)[C@H](C)NC1=O [Compound 125] | > 7.00 | 100 |  | 
CC(C)[C@@H]1NC(=O)C2(/C=C/c3ccc4ccc(nc4c3)[C@@H](C)OC(=O)[C@@H]3CCCN(N3)C(=O)[C@H](C)NC1=O)CCN(C(=O)OC(C)(C)C)CC2 [Compound 126] | > 7.00 | 100 |  | 
CC(C)[C@@H]1NC(=O)C2(/C=C/c3ccc4ccc(nc4c3)[C@@H](C)OC(=O)[C@@H]3CCCN(N3)C(=O)[C@H](C)NC1=O)CCNCC2 [Compound 127] | > 7.00 | 2 |  | 
CCN1CCC2(/C=C/c3ccc4ccc(nc4c3)[C@@H](C)OC(=O)[C@@H]3CCCN(N3)C(=O)[C@H](C)NC(=O)[C@H](C(C)C)NC2=O)CC1 [Compound 129] | > 7.00 |  | 96 | 
CC(C)[C@@H]1NC(=O)C2(/C=C/c3ccc4ccc(nc4c3)[C@@H](C)OC(=O)[C@@H]3CCCN(N3)C(=O)[C@H](C)NC1=O)CCN(S(C)(=O)=O)CC2 [Compound 130] | > 7.00 | 100 |  | 
CC(C)[C@@H]1NC(=O)C2(/C=C/c3ccc4ccc(nc4c3)[C@@H](C)OC(=O)[C@@H]3CCCN(N3)C(=O)[C@H](C)NC1=O)CCN(CC#N)CC2 [Compound 131] | > 7.00 |  | 77 | 
COC(=O)N1CCC2(/C=C/c3ccc4ccc(nc4c3)[C@@H](C)OC(=O)[C@@H]3CCCN(N3)C(=O)[C@H](C)NC(=O)[C@H](C(C)C)NC2=O)CC1 [Compound 132] | > 7.00 |  | 100 | 
CC(C)[C@@H]1NC(=O)C2(/C=C/c3ccc4ccc(nc4c3)[C@@H](C)OC(=O)[C@@H]3CCCN(N3)C(=O)[C@H](C)NC1=O)CCN(C(=O)N1CCCC1)CC2 [Compound 133] | > 7.00 | 98 |  | 
CC(C)[C@@H]1NC(=O)C2(/C=C/c3ccc4ccc(nc4c3)[C@@H](C)OC(=O)[C@@H]3CCCN(N3)C(=O)[C@H](C)NC1=O)CCN(S(=O)(=O)CC1CC1)CC2 [Compound 134] | > 7.00 | 99 |  | 
CC(=O)N1CCC2(/C=C/c3ccc4ccc(nc4c3)[C@@H](C)OC(=O)[C@@H]3CCCN(N3)C(=O)[C@H](C)NC(=O)[C@H](C(C)C)NC2=O)CC1 [Compound 135] | > 7.00 | 94 |  | 
CC(C)[C@@H]1NC(=O)C2(/C=C/c3ccc4ccc(nc4c3)[C@@H](C)OC(=O)[C@@H]3CCCN(N3)C(=O)[C@H](C)NC1=O)CCN(CC(F)(F)F)CC2 [Compound 136] | > 7.00 | 100 |  | 
COCc1cc2ccc3cc2nc1[C@@H](C)OC(=O)[C@@H]1CCCN(N1)C(=O)[C@H](C)NC(=O)[C@H](C(C)C)NC(=O)C(C)(C)/C=C/3 [Compound 137] | > 7.00 | 100 |  | 
CC(C)[C@@H]1NC(=O)C(C)(C)/C=C/c2ccc3c(Cl)cc(nc3c2)[C@@H](C)OC(=O)[C@@H]2CCCN(N2)C(=O)[C@H](C)NC1=O [Compound 138] | > 7.00 | 100 |  | 
CC1NC(=O)C(C(C)C)NC(=O)C(C)(C)/C=C/c2ccc3c(C#N)cc(nc3c2)C(C)OC(=O)C2CCCN(N2)C1=O (stereo not drawn) [Compound 141] | > 7.00 | 99 |  | 
CC(C)[C@@H]1NC(=O)C(C)(C)/C=C/c2ccc3ccc(cc3c2)[C@@H](C)OC(=O)[C@@H]2CCCN(N2)C(=O)[C@H](C)NC1=O [Compound 142] | > 7.00 | 99 |  | 
CC(C)[C@@H]1NC(=O)C(C)(C)/C=C/c2cc3cc(ccc3cn2)[C@@H](C)NC(=O)[C@@H]2CCCN(N2)C(=O)[C@H](C)NC1=O [Compound 143] | > 7.00 | 31 |  | 
Cc1cc2nc3cc(ccc13)/C=C/C(C)(C)C(=O)N[C@@H](C(C)C)C(=O)N[C@@H](C)C(=O)N1CCC[C@H](N1)C(=O)O[C@@H]2C [Compound 144] | > 7.00 | 100 |  | 
CC(C)[C@@H]1NC(=O)C(C)(C)/C=C/c2ccc3c(=O)[nH]c(nc3c2)[C@@H](C)OC(=O)C2CCCN(N2)C(=O)[C@@H](C)NC1=O (stereo partly drawn) [Compound 146] | > 7.00 | 24 |  | 
CC(C)[C@@H]1NC(=O)C(C)(C)/C=C/c2ccc3c(=O)n(C)c(nc3c2)[C@@H](C)OC(=O)C2CCCN(N2)C(=O)[C@@H](C)NC1=O (stereo partly drawn) [Compound 147] | > 7.00 | 94 |  | 
Cc1cc2cc3nc(ccc13)[C@@H](C)OC(=O)C1CCCN(N1)C(=O)[C@@H](C)NC(=O)[C@H](C(C)C)NC(=O)C(C)(C)/C=C/2 (stereo partly drawn) [Compound 148] | > 7.00 | 100 |  | 

Structure (SMILES) | pIC50 (cyclophilin A) | inhibition at 1 µM [1, 2] [%] | inhibition at 1 µM [1, 3] [%] | Replicon 1a % inhibition at 1 μM [1] [%]
CO[C@@H](C)[C@H]1/C=C/c2ccc3ccc(nc3c2)[C@@H](C)OC(=O)[C@@H]2CCCN(N2)C(=O)[C@@H](C)NC(=O)[C@H](C(C)C)NC1=O [Compound 149] | > 7.00 | 99 |  | 
CC(C)[C@@H]1NC(=O)C2(/C=C/c3ccc4ccc(nc4c3)[C@@H](C)OC(=O)[C@@H]3CCCN(N3)C(=O)[C@H](C)NC1=O)CC2 [Compound 152] | > 7.00 | 100 |  | 
CC(C)[C@@H]1NC(=O)C2(/C=C/c3ccc4ccc(nc4c3)[C@@H](C)OC(=O)[C@@H]3CCCN(N3)C(=O)[C@H](C)NC1=O)CCOCC2 [Compound 153] | > 7.00 | 100 |  | 
CC(C)[C@@H]1NC(=O)C2(/C=C/c3ccc4ccc(nc4c3)[C@@H](C)OC(=O)[C@@H]3CCCN(N3)C(=O)[C@H](C)NC1=O)CCCC2 [Compound 154] | > 7.00 | 100 |  | 
CC(C)[C@@H]1NC(=O)[C@@]2(/C=C/c3ccc4ccc(nc4c3)[C@@H](C)OC(=O)[C@@H]3CCCN(N3)C(=O)[C@H](C)NC1=O)CCCN2C(=O)OC(C)(C)C [Compound 155] | > 7.00 | 100 |  | 
CC(C)[C@@H]1NC(=O)[C@@]2(/C=C/c3ccc4ccc(nc4c3)[C@@H](C)OC(=O)[C@@H]3CCCN(N3)C(=O)[C@H](C)NC1=O)CCCN2S(C)(=O)=O [Compound 156] | > 7.00 | 87 |  | 
CC(C)[C@@H]1NC(=O)[C@]2(/C=C/c3ccc4ccc(nc4c3)[C@@H](C)OC(=O)[C@@H]3CCCN(N3)C(=O)[C@H](C)NC1=O)CC[C@H](O)CC2 [Compound 158] | > 7.00 | 100 |  | 
CC(C)[C@@H]1NC(=O)[C@]2(/C=C/c3ccc4ccc(nc4c3)[C@@H](C)OC(=O)[C@@H]3CCCN(N3)C(=O)[C@H](C)NC1=O)CC[C@@H](O)CC2 [Compound 160] | > 7.00 | 98 |  | 
CC(C)[C@@H]1NC(=O)[C@]2(CCc3ccc4ccc(nc4c3)[C@@H](C)OC(=O)[C@@H]3CCCN(N3)C(=O)[C@H](C)NC1=O)CC[C@H](O)CC2 [Compound 161] | > 7.00 |  |  | 95
Cc1cc2ccc(/C=C/C(C)(C)C(=O)N[C@H](C(=O)N[C@@H](C)C(=O)N3CCC[C@@H](C(=O)O)N3)C(C)C)cc2nc1[C@@H](C)O [Compound 162] | 5.00 to 6.00 | 0 |  | 
Cc1cc2ccc3cc2nc1[C@@H](C)OC(=O)[C@@H]1CCCN(N1)C(=O)[C@H](C)NC(=O)[C@H](C(C)C)NC(=O)C(C)(C)/C=C/3 [Compound 163] | > 7.00 | 100 |  | 
CC(C)C(=O)O[C@@H](C)[C@H]1/C=C/c2ccc3ccc(nc3c2)[C@@H](C)OC(=O)[C@@H]2CCCN(N2)C(=O)[C@H](C)NC(=O)[C@H](C(C)C)NC1=O [Compound 165] | > 7.00 | 100 |  | 
CC(C)[C@H](NC(=O)[C@H](/C=C/c1ccc2ccc([C@@H](C)O)nc2c1)[C@H](C)O)C(=O)N[C@@H](C)C(=O)N1CCC[C@@H](C(=O)O)N1 [Compound 166] | 5.00 to 6.00 | 0 |  | 
CC(C)[C@H](N)C(=O)O[C@@H](C)[C@H]1/C=C/c2ccc3ccc(nc3c2)[C@@H](C)OC(=O)[C@@H]2CCCN(N2)C(=O)[C@H](C)NC(=O)[C@H](C(C)C)NC1=O [Compound 167] | > 7.00 | 97 |  | 
CC(C)OC(=O)OCO[C@@H](C)[C@H]1/C=C/c2ccc3ccc(nc3c2)[C@@H](C)OC(=O)[C@@H]2CCCN(N2)C(=O)[C@H](C)NC(=O)[C@H](C(C)C)NC1=O [Compound 168] | > 7.00 | 100 |  | 
CC(C)[C@@H]1NC(=O)C(C)(C)/C=C/c2ccc3ccc(nc3c2F)[C@@H](C)OC(=O)[C@@H]2CCCN(N2)C(=O)[C@H](C)NC1=O [Compound 170] | > 7.00 | 100 |  | 
CC(=O)O[C@@H](C)[C@H]1/C=C/c2ccc3ccc(nc3c2)[C@@H](C)OC(=O)[C@@H]2CCCN(N2)C(=O)[C@H](C)NC(=O)[C@H](C(C)C)NC1=O [Compound 171] | > 7.00 | 99 |  | 
CCCC(=O)O[C@@H](C)[C@H]1/C=C/c2ccc3ccc(nc3c2)[C@@H](C)OC(=O)[C@@H]2CCCN(N2)C(=O)[C@H](C)NC(=O)[C@H](C(C)C)NC1=O [Compound 172] | > 7.00 | 100 |  | 
CC(C)[C@@H]1NC(=O)[C@]2(/C=C/c3ccc4ccc(nc4c3)[C@@H](C)OC(=O)[C@@H]3CCCN(N3)C(=O)[C@H](C)NC1=O)CC[C@@](C)(O)CC2 [Compound 173] | > 7.00 | 99 |  | 
CC(C)[C@@H]1NC(=O)[C@]2(/C=C/c3ccc4ccc(nc4c3)[C@@H](C)OC(=O)[C@@H]3CCCN(N3)C(=O)[C@H](C)NC1=O)CC[C@](C)(O)CC2 [Compound 174] | > 7.00 | 99 |  | 
Cc1cc2ccc3cc2nc1[C@@H](C)NC(=O)[C@@H]1CCCN(N1)C(=O)[C@H](C)NC(=O)[C@H](C(C)C)NC(=O)C(C)(C)/C=C/3 [Compound 175] | > 7.00 | 85 |  | 
